According to PubChem BioAssay (NCI):
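These data come from cells grown in 96-well plates and exposed to compound for 48 hours at five concentrations. GI50: concentration for 50% inhibition of growth. Definition used: TGI = concentration required for complete inhibition of growth.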

Tests used:
Assay in all cases: inhibition of tumour cell growth, NCI panel, 48 h
MOLT-4 leukemia = test system: MOLT-4 leukemia
ACHN renal = test system: ACHN renal
MALME-3M melanoma = test system: MALME-3M melanoma
SNB-19 CNS = test system: SNB-19 CNS
HCT-116 colon = test system: HCT-116 colon
SF-295 CNS = test system: SF-295 CNS
OVCAR-3 ovarian = test system: OVCAR-3 ovarian
K-562 leukemia = test system: K-562 leukemia
TK-10 renal = test system: TK-10 renal
T-47D breast = test system: T-47D breast

SMILES | TGI (MOLT-4 leukemia) | TGI (ACHN renal) | TGI (MALME-3M melanoma) | TGI (SNB-19 CNS) | TGI (HCT-116 colon) | TGI (SF-295 CNS) | TGI (OVCAR-3 ovarian) | TGI (K-562 leukemia) | TGI (TK-10 renal) | GI50 (MOLT-4 leukemia) | GI50 (ACHN renal) | GI50 (MALME-3M melanoma) | GI50 (SNB-19 CNS) | GI50 (T-47D breast) | TGI (T-47D breast) | GI50 (HCT-116 colon) | GI50 (OVCAR-3 ovarian) | GI50 (K-562 leukemia) | GI50 (TK-10 renal) | GI50 (SF-295 CNS)
CC(=O)O[C@H]1CC[C@@]2(C)C(=C/C(=N\[N+](=O)[O-])[C@H]3C4CCC([C@H](C)CCCC(C)C)[C@@]4(C)CCC32)C1 (some centres not stated) | > 100 µM | > 100 µM | > 100 µM | > 100 µM | > 100 µM | > 100 µM | > 100 µM | > 100 µM | > 100 µM |  |  |  |  |  |  |  |  |  |  | 
O=c1[nH]cnc2c1ncn2CCCCO | > 100 µM | > 100 µM | > 100 µM | > 100 µM | > 100 µM | > 100 µM | > 100 µM | > 100 µM | > 100 µM |  |  |  |  |  |  |  |  |  |  | 
CCc1c2c(nc3ccc(OCc4ccc(B5OC(C)(C)C(C)(C)O5)cc4)cc13)-c1cc3c(c(=O)n1C2)COC(=O)[C@]3(O)CC | > 100 µM | 2.07 µM | 3.07 µM | > 100 µM | > 100 µM |  | > 100 µM | > 100 µM | > 100 µM | < 0.01 µM | 0.0278 µM | 0.134 µM | < 0.01 µM | < 0.01 µM | > 100 µM | 0.0169 µM | 0.215 µM | 0.0562 µM | 1.83 µM | 
Cc1ccc(Nc2nc(C)c(C(/C=C/c3ccc4c(c3)OCO4)=N/Nc3ccc([N+](=O)[O-])cc3[N+](=O)[O-])s2)c([N+](=O)[O-])c1 | > 100 µM | > 100 µM | > 100 µM | > 100 µM | > 100 µM | > 100 µM | > 100 µM | > 100 µM | > 100 µM |  |  |  |  |  |  |  |  |  |  | 
OC1c2ccccc2C2C(O)c3ccccc3C12 (configuration not stated) | > 100 µM | > 100 µM | > 100 µM |  |  | > 100 µM | > 100 µM | > 100 µM | > 100 µM |  |  |  |  |  |  |  |  |  |  | 
CC1=C(C(=O)Nc2ccccc2C)C(c2ccccc2C)C(C(=O)Nc2ccccc2C)=C(C)N1 | > 10 µM | 29.5 µM | 38.2 µM | 56.9 µM | 50.4 µM | 44.2 µM | 34.7 µM | 69.3 µM | 64.4 µM |  |  |  |  |  |  |  |  |  |  | 
CN(C)CC1=Nc2cccc3cccc(c23)N1 |  | 28.2 µM | 36.5 µM | > 100 µM | 30.8 µM | > 100 µM | 30.5 µM | 62.3 µM | 32.3 µM |  |  |  |  |  | 24.6 µM |  |  |  |  | 
COc1cc(/C=C\c2ccc(Cl)cc2)cc(OC)c1OC | 6.87 µM | > 100 µM | 57.3 µM | > 100 µM | > 100 µM | 0.218 µM | 0.437 µM | > 44.2 µM | > 100 µM |  |  |  |  |  |  |  |  |  |  | 
CC1CC(=O)c2c(ccc3c2C(=O)c2cccc(O)c2C3=O)C1 (configuration not stated) | 9.57 µM |  | 19.8 µM | 26.1 µM | 20.1 µM | 23.2 µM | 16.5 µM | 10.6 µM |  |  |  |  |  |  |  |  |  |  |  | 
COc1ccc(OC)c(/C=N/N=C2\C(=O)Nc3c(Cl)cc(Cl)cc32)c1 | > 100 µM | > 100 µM | > 100 µM | > 100 µM | > 100 µM | > 100 µM | > 100 µM | > 100 µM | > 100 µM |  |  |  |  |  |  |  |  |  |  | 
CCOC(=O)c1cn(CC)c2cc3c(cc2c1=O)SCS3 | > 100 µM | > 100 µM | > 100 µM | > 100 µM |  | > 100 µM | > 100 µM | > 100 µM | > 100 µM |  |  |  |  |  |  |  |  |  |  | 
CCSC(=O)C1(C)OC2CCCCC2C1=O (configuration not stated) | > 100 µM | > 100 µM | > 100 µM | > 100 µM | > 100 µM |  |  | > 100 µM | > 100 µM |  |  |  |  |  |  |  |  |  |  | 
CCOC(=O)C1Oc2ccc([N+](=O)[O-])cc2C1(C)O (configuration not stated) | > 100 µM | > 100 µM | > 100 µM | > 100 µM |  | > 100 µM | > 100 µM | > 100 µM | > 100 µM |  |  |  |  |  |  |  |  |  |  | 
O=C1NN=CN2C(=O)CCC12 (configuration not stated) | > 100 µM | > 100 µM |  | > 100 µM | > 100 µM | > 100 µM | > 100 µM | > 100 µM | > 100 µM |  |  |  |  |  |  |  |  |  |  | 
Cc1cc(C)nc(NS(=O)(=O)c2ccc(NC(=O)c3cccc4c(N)c5ccccc5nc34)cc2)n1 | > 100 µM | > 100 µM | > 100 µM | > 100 µM | > 100 µM | > 100 µM | > 100 µM | > 100 µM | > 100 µM |  |  |  |  |  |  |  |  |  |  | 
NNC(=S)N/N=C(/C(=O)Nc1ccc([N+](=O)[O-])cc1)c1nc2ccc([N+](=O)[O-])cc2[nH]c1=O | > 100 µM | > 100 µM | > 100 µM |  | > 100 µM | > 100 µM |  | > 100 µM | > 100 µM |  |  |  |  |  |  |  |  |  |  | 
COC(=O)C1C(/C=C/c2ccoc2)ON2CCC[C@@H]12 (some centres not stated) |  | > 100 µM | > 100 µM | > 100 µM |  | > 100 µM | > 100 µM |  | > 100 µM |  |  |  |  |  |  |  |  |  |  | 
O=C1NN=C(c2ccc([N+](=O)[O-])cc2)C1n1nc(-c2ccccc2)c2ccccc2c1=O (configuration not stated) | > 100 µM | > 100 µM | > 100 µM | > 100 µM | > 100 µM | > 100 µM | > 100 µM | > 100 µM | > 100 µM |  |  |  |  |  |  |  |  |  |  | 
Nc1ccccc1C#C/C=C\C#Cc1ccccc1F | > 100 µM | 40 µM | 13.9 µM |  | 16.1 µM | 16.6 µM | 14.7 µM | > 100 µM | 25.6 µM | 2.13 µM | 13.5 µM | 2.62 µM |  | 8.05 µM | > 100 µM | 3.52 µM | 2.84 µM | 3.38 µM | 6.42 µM | 3.9 µM
COc1ccc2c(c1OC)C(=O)O[C@@H]2[C@H]1c2c(c(Br)c3c(c2OC)OCO3)CCN1C | > 100 µM | > 100 µM |  | > 100 µM | > 100 µM | 47.4 µM | 40.8 µM | > 100 µM | 94.5 µM | 4.09 µM | > 100 µM |  | 75.9 µM | 80.5 µM | > 100 µM | 4.69 µM | 10.6 µM | 2.73 µM | 14.4 µM | 10.8 µM
CCOC(=O)/C=C1\Oc2ccccc2C1(C)O (configuration not stated) | > 100 µM | > 100 µM | > 100 µM | > 100 µM | > 100 µM | > 100 µM | > 100 µM | > 100 µM | > 100 µM |  |  |  |  |  |  |  |  |  |  | 
